Experimental data from patent US8622991B2, “Method and device for drug delivery” (Insuline Medical Ltd., priority 2007, dated 2014).

Experiments:
[1] = euglycemic glucose clamp study (Glucose Infusion Rate) after insulin pump bolus, with and without heating device; type: in vivo, human; details: FIG. 26a; for time to peak action (GIR): insulin bolus 0.15 U/kg by pump
Excerpt: The infusion set includes a tube 44 and a catheter 47, which is inserted into the subcutaneous tissue. […] The controller unit has a switch/button 48 for manual operation and two indicators 49 for “treatment is on” and for battery status. The two components are connected by wires 43.
The controller monitors the electromagnetic emission from the pump. During a bolus mode, the pump emits a well defined series of electromagnetic pulses at constant rate, shown as arrows 42. […] The temperature of the heater is controlled by the controller using a temperature sensor 45 located on the heating element.
The flat heating element used in this example has several layers. The upper layer is a polyethylene layer which seals the element. Below that layer, there is an etched circuit, below which there is a copper layer for heat distribution and mechanical support. Below that layer, there is another sealing polyethylene layer, below which there is an adhesive tape from 3M® which is bio-compatible. The heater has a thickness of less than 0.2 mm and his diameter is 3 cm. Thin electric wires of length of 60 cm with small connectors at both ends connected the heater to the controller unit. The power used for the heating can be 2 Watts. The heating was turned on and off by the controller to stabilize the skin temperature at 39° C. The heat duration was set to 30 minutes, after which the temperature regulation was stopped.
The subject lied down in supine position.
The above described procedure was performed in the same subjects under the same conditions with and without using the heating device. The two graphs show the GIR in glucose milligrams per minutes per subject's kg vs. time. […] There are many attempts to compose such an “artificial pancreas” since the development of continuous glucose monitors. […] Thus, another use of the methods and devices by the present invention is to combine them with a glucose sensor, insulin delivery device and a control algorithm to provide a better accuracy and robustness of a closed loop glucose level control system.

[2] = temperature to which the insulin can be exposed (insulin infused tissue region); cited from earlier work

Substance | time to peak action (GIR) ([1]; with heating (skin 39° C., 30 minutes), same subject) [min] | GIR decrease (indication for insulin clearance out of the circulation and cessation of systemic effects) ([1]; with heating compared to without heating, same subject) | time to peak action (GIR) ([1]; without heating, typical result in one diabetic subject) [min] | maximal limiting temperature [2] [°C]
insulin | 50 | much faster | 75 | –
Insulin aspart [Novolog] | – | – | – | 37
